Reference: BigSolDB 2.1

CCCN(CCc1cccs1)[C@H]1CCc2c(O)cccc2C1
solubility (mole fraction)
Conditions	in ethanol	in ethyl acetate	in isopropanol	in isopropyl acetate	in methanol	in methyl acetate	in n-butanol	in n-butyl acetate	in n-propanol	in n-propyl acetate
278.15 K	0.00236	0.0243	0.00273	0.0201	0.00131	0.0124	0.00758	0.0311	0.00555	0.0247
283.15 K	0.00398	0.0303	0.00418	0.0257	0.00249	0.0167	0.0105	0.0368	0.00758	0.0305
288.15 K	0.00677	0.0369	0.00598	0.0314	0.00379	0.0211	0.0129	0.0433	0.0103	0.0371
293.15 K	0.00912	0.0437	0.00845	0.0381	0.00531	0.0262	0.0163	0.051	0.0138	0.0435
298.15 K	0.012	0.0512	0.0105	0.046	0.00696	0.0323	0.0222	0.0597	0.0175	0.052
303.15 K	0.0183	0.0601	0.0163	0.0553	0.0107	0.0393	0.0306	0.0688	0.0237	0.0612
308.15 K	0.0239	0.0707	0.0219	0.0661	0.0161	0.0482	0.0387	0.08	0.0298	0.0716
313.15 K	0.0345	0.0812	0.0311	0.0782	0.0248	0.0587	0.0467	0.0915	0.0399	0.0834
